# “And” between values parts separate entries of the source, which are not always exact repeats. Identical values can stand only once.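 48-hour exposure; five concentrations; linearly interpolated endpoints. GI50 marks 50% less growth. TGI: total growth inhibition.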
# What was measured:
# Test in all cases: growth of human tumour cells (NCI), 48 h
# MOLT-4 leukemia = system: MOLT-4 leukemia
# SK-MEL-5 melanoma = system: SK-MEL-5 melanoma
# K-562 leukemia = system: K-562 leukemia
# OVCAR-4 ovarian = system: OVCAR-4 ovarian
# COLO 205 colon = system: COLO 205 colon
# HL-60(TB) leukemia = system: HL-60(TB) leukemia
# SK-OV-3 ovarian = system: SK-OV-3 ovarian
# HCC-2998 colon = system: HCC-2998 colon
# HT29 colon = system: HT29 colon
# SK-MEL-28 melanoma = system: SK-MEL-28 melanoma
Compound,GI50 (MOLT-4 leukemia),TGI (MOLT-4 leukemia),GI50 (SK-MEL-5 melanoma),TGI (SK-MEL-5 melanoma),GI50 (K-562 leukemia),TGI (K-562 leukemia),GI50 (OVCAR-4 ovarian),TGI (OVCAR-4 ovarian),GI50 (COLO 205 colon),TGI (COLO 205 colon),GI50 (HL-60(TB) leukemia),TGI (HL-60(TB) leukemia),GI50 (SK-OV-3 ovarian),TGI (SK-OV-3 ovarian),GI50 (HCC-2998 colon),TGI (HCC-2998 colon),GI50 (HT29 colon),TGI (HT29 colon),GI50 (SK-MEL-28 melanoma),TGI (SK-MEL-28 melanoma)
Fc1cccc(COc2ccc(Nc3ncnc4sc(-c5ccco5)cc34)cc2Cl)c1,> 25 µM,> 25 µM,> 25 µM,> 25 µM,> 25 µM,> 25 µM,> 25 µM,> 25 µM,> 25 µM,> 25 µM,> 25 µM,> 25 µM,> 25 µM,> 25 µM,> 25 µM,> 25 µM,> 25 µM,> 25 µM,> 25 µM,> 25 µM
COc1ccc(C(=O)N2c3ccccc3Sc3ccccc32)c(F)c1,0.715 µM,> 100 µM,0.759 µM,22.5 µM,0.442 µM,> 100 µM,2.01 µM,> 100 µM,0.445 µM,26.8 µM,0.325 µM,> 100 µM,4.13 µM,> 100 µM,2.38 µM,> 100 µM,0.38 µM,43.3 µM,1.64 µM,> 100 µM
COc1ccc(C2C(Cl)C(=O)N2n2cnc3ccccc3c2=O)cc1OC (stereo not given),–,> 100 µM,–,> 100 µM,–,> 100 µM,–,> 100 µM,–,> 100 µM,–,> 100 µM,–,> 100 µM,–,> 100 µM,–,> 100 µM,–,> 100 µM
COC(=O)c1nc(NN)[nH]c(=O)c1CCCCCc1c(C(=O)OC)[nH]c(NN)cc1=O,–,> 100 µM,–,> 100 µM,–,> 100 µM,–,> 100 µM,–,> 100 µM,–,> 100 µM,–,> 100 µM,–,> 100 µM,–,> 100 µM,–,> 100 µM
COc1cc(-c2csc(NC(=O)c3cc(C(F)(F)F)cc(C(F)(F)F)c3)n2)cc(OC)c1OC,1.92 µM,4.98 µM,1.47 µM,3.11 µM,2.75 µM,> 100 µM,2.86 µM,> 100 µM,2.63 µM,7.29 µM,2.07 µM,6.18 µM,2.91 µM,9.76 µM,3.2 µM,> 100 µM,2.07 µM,> 100 µM,2.77 µM,> 100 µM
Nc1cc2c3c(cccc3c1)NC2=O,–,> 100 µM,–,> 100 µM,–,> 100 µM,–,> 100 µM,–,> 100 µM,–,> 100 µM,–,> 100 µM,–,> 100 µM,–,> 100 µM,–,> 100 µM
COc1ccc2nc(-c3ccccc3)cc(Nc3cccc(/C(C)=N\O)c3)c2c1,6.18 µM,> 100 µM,13.2 µM,41 µM,4.12 µM,> 100 µM,5.65 µM,> 100 µM,21.4 µM,> 100 µM,> 100 µM,> 100 µM,6.65 µM,80.6 µM,46.2 µM,> 100 µM,28.2 µM,> 100 µM,57.7 µM,> 100 µM
Cc1cccc(NC(=O)c2sc3nc4c(cc3c2N)CCCC4)c1C,0.455 µM,> 100 µM,0.399 µM,> 100 µM,0.238 µM,> 100 µM,1.48 µM,> 100 µM,0.344 µM,27.6 µM,0.266 µM,0.941 µM,0.581 µM,> 100 µM,1.59 µM,> 100 µM,0.341 µM,> 100 µM,> 48.4 µM,> 100 µM
CC1(C)O[C@H]2OC3CCC(=O)CC3(O)[C@H]2O1 (stereo not given in full),–,> 100 µM,–,> 100 µM,–,> 100 µM,–,> 100 µM,–,> 100 µM,–,> 100 µM,–,> 100 µM,–,> 100 µM,–,> 100 µM,–,> 100 µM
O=C(Nc1ccc(OC(F)(F)F)cc1)c1sccc1NCc1ccnc2ccccc12,3.09 µM,> 31.6 µM,2.37 µM,7.21 µM,1.61 µM,> 100 µM,4.57 µM,> 100 µM,3.74 µM,13.8 µM,1.78 µM,19.3 µM,2.42 µM,> 100 µM,4.82 µM,> 100 µM,3.36 µM,> 100 µM,5.64 µM,> 100 µM
CSc1ccc(/C=C2\CNC/C(=C\c3ccc(SC)cc3)C2=O)cc1,150 mg/L,> 371 µM and 150 µg/mL,150 mg/L,> 371 µM and 150 µg/mL,150 mg/L,> 371 µM and 150 µg/mL,> 371 µM and 18.7 µg/mL,> 371 µM and 28.7 µg/mL,150 mg/L,> 371 µM and 150 µg/mL,15.2 mg/L,362 µM and 99.8 µg/mL,77.8 mg/L,> 170 µM and 148 µg/mL,> 371 µM and 150 µg/mL,> 371 µM and 150 µg/mL,150 mg/L,> 117 µM and 150 µg/mL,150 mg/L,> 371 µM and 150 µg/mL
CS(=O)(=O)c1ccc(Cl)c([N+](=O)[O-])c1,28.5 µM,69.5 µM,13 µM,25.7 µM,6.78 µM,66.5 µM,2.02 µM,3.9 µM,16.4 µM,33.2 µM,19.7 µM,47.6 µM,18.4 µM,32.3 µM,11 µM,24 µM,4.63 µM,17 µM,17.9 µM,32 µM
CCC1(Br)C(=O)NC(=O)N(C2CC(O)C(CO)O2)C1N=[N+]=[N-] (stereo not given),–,> 100 µM,–,> 100 µM,–,> 100 µM,–,> 100 µM,–,> 100 µM,–,> 100 µM,–,> 100 µM,–,> 100 µM,–,> 100 µM,–,> 100 µM

# — PubChem BioAssay (NCI)
